From ChEMBL document CHEMBL1137549, “1-Aminocyclopentane-1,2,4-tricarboxylic acids screening on glutamatergic and serotonergic systems” (Bioorg Med Chem, 2007)
Activity calls are given as the source filed them. The rule behind the calls is not given here.

Columns and labels:
[1] = target: Metabotropic glutamate receptor 2 (Homo sapiens) (UniProt Q14416); test: Antagonist activity at mGluR2 expressed in CHO cells assessed as inhibition of forskolin stimulated cAMP accumulation at 10 uM; assay type: functional, cell-based
[2] = target: 5-hydroxytryptamine receptor 2A (Rattus norvegicus, UniProt P14842); test: Displacement of [3H]ketanserin from 5HT2A receptor in rat cortex membrane; assay type: cell membranes
[3] = target: Metabotropic glutamate receptor 1 (Homo sapiens) (UniProt Q13255); test: Antagonist activity at mGluR1 expressed in CHO cells assessed as inhibition of glutamate stimulated phosphatidyl inositol hydrolysis at 10 uM; assay type: functional, cell-based
[4] = target: Sodium-dependent serotonin transporter (Homo sapiens, UniProt P31645); assay type: cell membranes
[5] = target: Metabotropic glutamate receptor 6 (Homo sapiens) (UniProt O15303); test: Antagonist activity at mGluR6 expressed in CHO cells assessed as inhibition of forskolin stimulated cAMP accumulation at 10 uM; assay type: functional, cell-based
[6] = target: Metabotropic glutamate receptor 1 (Homo sapiens) (UniProt Q13255); test: Agonist activity at mGluR1 expressed in CHO cells assessed as stimulation of phosphatidyl inositol hydrolysis at 10 uM; assay type: functional, cell-based
[7] = target: Metabotropic glutamate receptor 2 (Homo sapiens) (UniProt Q14416); test: Agonist activity at mGluR2 expressed in CHO cells assessed as decrease in cAMP accumulation at 10 uM; assay type: functional, cell-based; design: scale not given: the % may be the effect or the level left
[8] = target: Metabotropic glutamate receptor 6 (Homo sapiens) (UniProt O15303); test: Antagonist activity at mGluR6 expressed in CHO cells assessed as inhibition of AP4-induced cAMP accumulation at 10 uM; assay type: functional, cell-based
[9] = target: Metabotropic glutamate receptor 2 (Homo sapiens) (UniProt Q14416); test: Antagonist activity at mGluR2 expressed in CHO cells assessed as inhibition of glutamate-induced cAMP accumulation at 10 uM; assay type: functional, cell-based
[10] = target: T1, 5-hydroxytryptamine receptor 1A (Rattus norvegicus, UniProt P19327); test: Displacement of [3H]8-OH-DPAT from 5HT1A receptor in rat cortex membrane; assay type: cell membranes
T1 sequence (P19327 whole entry): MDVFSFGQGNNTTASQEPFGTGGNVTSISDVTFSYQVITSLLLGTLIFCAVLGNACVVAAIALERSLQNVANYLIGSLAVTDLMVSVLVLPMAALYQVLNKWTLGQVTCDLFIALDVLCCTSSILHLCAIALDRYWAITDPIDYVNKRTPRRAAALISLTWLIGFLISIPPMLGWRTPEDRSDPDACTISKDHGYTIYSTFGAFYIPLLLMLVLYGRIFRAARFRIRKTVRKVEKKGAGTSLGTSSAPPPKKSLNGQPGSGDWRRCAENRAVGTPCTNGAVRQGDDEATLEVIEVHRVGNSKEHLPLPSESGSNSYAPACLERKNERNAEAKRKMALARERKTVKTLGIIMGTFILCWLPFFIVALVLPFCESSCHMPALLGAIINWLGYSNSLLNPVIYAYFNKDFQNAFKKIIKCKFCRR

[11] = target: Metabotropic glutamate receptor 6 (Homo sapiens) (UniProt O15303); test: Agonist activity at mGluR6 expressed in CHO cells assessed as decrease in cAMP accumulation at 10 uM; assay type: functional, cell-based; design: scale not given: the % may be the effect or the level left

Chain of Sodium-dependent serotonin transporter (P31645 whole entry): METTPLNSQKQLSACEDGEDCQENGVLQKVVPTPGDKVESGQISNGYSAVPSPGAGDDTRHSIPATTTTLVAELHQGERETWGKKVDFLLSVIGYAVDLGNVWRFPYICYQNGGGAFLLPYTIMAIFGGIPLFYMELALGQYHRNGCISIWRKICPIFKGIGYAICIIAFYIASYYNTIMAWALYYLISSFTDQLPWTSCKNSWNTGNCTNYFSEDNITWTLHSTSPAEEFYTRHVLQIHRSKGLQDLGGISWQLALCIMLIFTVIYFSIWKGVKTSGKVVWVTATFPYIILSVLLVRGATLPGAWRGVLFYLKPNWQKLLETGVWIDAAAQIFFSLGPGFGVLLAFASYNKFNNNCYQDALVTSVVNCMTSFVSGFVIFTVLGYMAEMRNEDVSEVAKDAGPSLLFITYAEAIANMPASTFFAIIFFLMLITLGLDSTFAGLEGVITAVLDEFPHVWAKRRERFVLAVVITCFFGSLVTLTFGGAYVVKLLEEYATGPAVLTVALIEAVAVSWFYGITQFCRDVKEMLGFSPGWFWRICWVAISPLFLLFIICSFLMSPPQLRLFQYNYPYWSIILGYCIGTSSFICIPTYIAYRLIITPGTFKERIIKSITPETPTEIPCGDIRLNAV
Chain of 5-hydroxytryptamine receptor 2A (P14842 whole entry): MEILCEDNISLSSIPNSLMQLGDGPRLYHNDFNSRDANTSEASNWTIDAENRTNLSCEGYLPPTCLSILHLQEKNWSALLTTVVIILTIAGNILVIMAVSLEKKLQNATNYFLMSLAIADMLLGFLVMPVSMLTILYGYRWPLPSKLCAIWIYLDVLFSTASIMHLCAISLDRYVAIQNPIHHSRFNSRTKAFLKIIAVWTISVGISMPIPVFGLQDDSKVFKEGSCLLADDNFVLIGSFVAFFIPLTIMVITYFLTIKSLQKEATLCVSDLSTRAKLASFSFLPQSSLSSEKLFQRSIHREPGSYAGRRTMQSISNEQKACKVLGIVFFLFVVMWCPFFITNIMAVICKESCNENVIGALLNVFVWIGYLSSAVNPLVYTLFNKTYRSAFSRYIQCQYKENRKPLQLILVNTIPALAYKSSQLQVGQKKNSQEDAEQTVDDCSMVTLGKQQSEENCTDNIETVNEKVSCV
Chain of Metabotropic glutamate receptor 2 (Homo sapiens) (Q14416 19-872 limits assumed): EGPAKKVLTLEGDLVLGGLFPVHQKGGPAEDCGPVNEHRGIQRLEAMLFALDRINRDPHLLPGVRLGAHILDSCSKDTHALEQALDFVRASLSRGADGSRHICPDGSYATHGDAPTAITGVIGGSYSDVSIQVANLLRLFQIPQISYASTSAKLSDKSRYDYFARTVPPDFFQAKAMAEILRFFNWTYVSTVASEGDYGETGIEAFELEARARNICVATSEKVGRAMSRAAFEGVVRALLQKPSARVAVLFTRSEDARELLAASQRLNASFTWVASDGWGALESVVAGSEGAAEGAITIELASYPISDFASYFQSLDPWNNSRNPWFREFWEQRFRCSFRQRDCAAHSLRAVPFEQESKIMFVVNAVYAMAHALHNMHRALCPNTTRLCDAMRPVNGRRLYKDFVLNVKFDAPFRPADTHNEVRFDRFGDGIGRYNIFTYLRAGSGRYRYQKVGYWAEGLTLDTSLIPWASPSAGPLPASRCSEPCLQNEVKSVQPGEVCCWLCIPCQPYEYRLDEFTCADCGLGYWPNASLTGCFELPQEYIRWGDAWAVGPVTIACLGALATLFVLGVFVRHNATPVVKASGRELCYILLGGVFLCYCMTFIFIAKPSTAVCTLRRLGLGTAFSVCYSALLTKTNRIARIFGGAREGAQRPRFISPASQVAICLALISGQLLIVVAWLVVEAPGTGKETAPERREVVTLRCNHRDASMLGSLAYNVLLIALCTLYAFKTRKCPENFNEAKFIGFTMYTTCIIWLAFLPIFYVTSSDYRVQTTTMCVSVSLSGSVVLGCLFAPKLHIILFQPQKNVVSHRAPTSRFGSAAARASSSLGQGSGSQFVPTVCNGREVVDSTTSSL
Chain of Metabotropic glutamate receptor 6 (Homo sapiens) (O15303 whole entry): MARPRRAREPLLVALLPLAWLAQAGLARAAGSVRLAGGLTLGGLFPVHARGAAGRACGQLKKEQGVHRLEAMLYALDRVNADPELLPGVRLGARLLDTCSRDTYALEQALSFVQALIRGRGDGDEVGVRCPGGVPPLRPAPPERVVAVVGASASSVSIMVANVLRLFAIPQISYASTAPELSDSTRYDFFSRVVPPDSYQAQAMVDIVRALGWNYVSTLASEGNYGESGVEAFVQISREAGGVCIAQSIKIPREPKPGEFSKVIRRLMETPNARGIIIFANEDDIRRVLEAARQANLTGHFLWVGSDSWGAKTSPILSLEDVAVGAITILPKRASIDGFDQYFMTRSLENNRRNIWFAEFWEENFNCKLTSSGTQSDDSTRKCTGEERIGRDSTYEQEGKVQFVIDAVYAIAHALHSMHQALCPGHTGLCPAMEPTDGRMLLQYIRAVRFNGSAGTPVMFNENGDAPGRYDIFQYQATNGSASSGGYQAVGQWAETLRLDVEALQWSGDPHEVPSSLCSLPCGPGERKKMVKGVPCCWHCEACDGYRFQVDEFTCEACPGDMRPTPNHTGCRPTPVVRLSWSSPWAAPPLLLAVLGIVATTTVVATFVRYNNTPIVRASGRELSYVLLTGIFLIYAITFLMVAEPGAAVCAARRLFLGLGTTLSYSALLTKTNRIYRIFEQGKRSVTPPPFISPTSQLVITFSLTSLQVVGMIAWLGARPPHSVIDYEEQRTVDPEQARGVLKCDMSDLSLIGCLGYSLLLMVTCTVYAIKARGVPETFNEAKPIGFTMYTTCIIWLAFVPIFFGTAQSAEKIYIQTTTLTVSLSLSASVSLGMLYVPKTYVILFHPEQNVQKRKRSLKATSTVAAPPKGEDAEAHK
Chain of Metabotropic glutamate receptor 1 (Homo sapiens) (Q13255 19-1194 limits assumed): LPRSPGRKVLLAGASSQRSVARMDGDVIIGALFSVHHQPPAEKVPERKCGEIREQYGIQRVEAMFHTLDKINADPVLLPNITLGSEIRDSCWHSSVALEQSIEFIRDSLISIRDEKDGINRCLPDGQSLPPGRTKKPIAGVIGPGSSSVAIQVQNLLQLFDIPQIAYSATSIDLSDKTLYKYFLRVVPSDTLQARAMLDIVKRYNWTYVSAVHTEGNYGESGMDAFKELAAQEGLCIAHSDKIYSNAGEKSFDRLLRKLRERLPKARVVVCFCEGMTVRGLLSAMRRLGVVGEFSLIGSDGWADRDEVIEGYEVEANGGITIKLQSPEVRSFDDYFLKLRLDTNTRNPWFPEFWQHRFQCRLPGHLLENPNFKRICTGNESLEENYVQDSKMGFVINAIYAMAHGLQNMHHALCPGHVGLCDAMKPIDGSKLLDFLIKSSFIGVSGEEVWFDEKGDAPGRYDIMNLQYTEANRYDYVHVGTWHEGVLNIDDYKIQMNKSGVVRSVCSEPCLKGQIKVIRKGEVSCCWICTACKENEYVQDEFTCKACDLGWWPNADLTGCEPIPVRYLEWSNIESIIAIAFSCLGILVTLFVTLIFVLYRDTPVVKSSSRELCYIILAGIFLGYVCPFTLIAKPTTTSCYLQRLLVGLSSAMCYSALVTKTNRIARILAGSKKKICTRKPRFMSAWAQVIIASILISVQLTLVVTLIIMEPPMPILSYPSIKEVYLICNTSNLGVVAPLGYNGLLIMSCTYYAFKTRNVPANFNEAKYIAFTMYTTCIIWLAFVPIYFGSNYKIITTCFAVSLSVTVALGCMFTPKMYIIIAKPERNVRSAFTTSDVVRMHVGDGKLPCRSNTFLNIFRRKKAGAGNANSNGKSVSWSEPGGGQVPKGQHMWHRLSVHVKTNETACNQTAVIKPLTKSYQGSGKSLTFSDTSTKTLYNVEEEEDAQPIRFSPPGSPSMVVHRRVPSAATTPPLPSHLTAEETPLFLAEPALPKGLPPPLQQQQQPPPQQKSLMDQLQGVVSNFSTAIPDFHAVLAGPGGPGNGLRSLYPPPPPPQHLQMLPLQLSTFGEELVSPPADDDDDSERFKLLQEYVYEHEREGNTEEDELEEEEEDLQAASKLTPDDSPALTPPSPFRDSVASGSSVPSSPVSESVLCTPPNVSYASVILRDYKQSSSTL

| Activity [1] | Ki [2] [µM] | Activity [3] | Ki [4] [µM] | Activity [5] | Activity [6] | Activity [7] | Activity [8] | Activity [9] | Ki [10] [µM] | Activity [11] | SMILES |
| --- | --- | --- | --- | --- | --- | --- | --- | --- | --- | --- | --- |
| inactive | > 50 | inactive | > 50 | inactive | inactive | inactive | inactive | inactive | > 50 | inactive | N[C@]1(C(=O)O)C[C@H](C(=O)O)C[C@@H]1C(=O)O |
| inactive | > 50 | inactive | > 50 | inactive | inactive | inactive | inactive | inactive | > 50 | inactive | N[C@@]1(C(=O)O)C[C@H](C(=O)O)C[C@@H]1C(=O)O |
| – | > 50 | inactive | > 50 | – | inactive | 30% | inactive | inactive | > 50 | 30% | N[C@@]1(C(=O)O)C[C@@H](C(=O)O)C[C@H]1C(=O)O |
| inactive | > 50 | inactive | 10 | inactive | inactive | inactive | inactive | inactive | > 50 | inactive | N[C@]1(C(=O)O)C[C@@H](C(=O)O)C[C@H]1C(=O)O |
